From patent publication EP0251126B1, “1,7-substituted heptyne-2-ones” (priority 1986, dated 1988)

Assays:
[1] = system: bladder contraction strength (PvesP); type: in vivo, Guinea pigs; settings: T-1/2 of the compound compared with T-1/2 of oxybutynin
Description: To assess test compounds with a more intact model system, a method which more closely mimics the natural slow filling of the bladder is used.
This clinical CMG is produced by catheterizing the bladder so it may be filled, emptied and refilled with fluid while simultaneously measuring the internal bladder pressure (Pves). […] This allows the bladder to reach maximum capacity/pressure before sensory systems initiate the normal urge and micturition reflex patterns. We use a modification of this clinical test to determine duration of action of test compounds by repeated filling of the bladder following i.v. administration of the test compound. Peak pressure above the threshold pressure is the primary measure of action which can be inhibited by the test compounds and can be used to determine potency and duration of action in this anesthetized Guinea pig model. […]
Test drugs and reference compounds are normally prepared as a solution in normal saline, acidified or made basic as needed to get the compound into solution at the desired concentration. Drugs are delivered at selected mg/kg (calculated as free base) doses i.v. in a volume of approximately 0.5 to 0.8 ml. […]

[2] = target: postsynaptic muscarinic cholinergic receptors on bladder detrusor muscle (Cavia porcellus, UniProt Q8VH26); type: biochemical, guinea-pigs; settings: guinea pig bladder strips, carbachol as agonist
Description: (§1) Serial dilutions (1:10) in saline or water are made from the stock solution.
(§2) Serial dilutions (1:10) in saline or water are made from the stock solution. […] Serial dilutions (1:10) in water are made from the stock solution. Other solvents may be used when appropriate and will be specifically described in the experimental procedure. Appropriate volumes are then added to the baths in order to obtain the desired bath concentrations.
(§3) With each concentration step, the tissue contracts isometrically. The next concentration is added only after the preceding contraction has reached a steady value.
Three or four different concentrations of antagonist are studied in the same preparations.

[3] = target: postsynaptic muscarinic cholinergic receptors on intestinal (ileal) longitudinal smooth muscle (Cavia porcellus, UniProt Q8VH26); type: biochemical, guinea-pigs; settings: guinea pig ileum longitudinal muscle, carbachol as agonist
Description: The cavity is opened and the small intestine is removed, with about 10 cm of the terminal ileum being discarded. […] The segments are preferentially taken from the aboral end of the ileum.
The preparations are allowed to recover for an additional 12 minutes before being used in experiments.
as §1, §2, §3
Three or four different concentrations of antagonist are studied in the same preparations. Responses are expressed relative to the maximum contraction elicited by carbachol in the absence of antagonist.

Sequence of postsynaptic muscarinic cholinergic receptors on intestinal (ileal) longitudinal smooth muscle (Q8VH26 entry or part of it): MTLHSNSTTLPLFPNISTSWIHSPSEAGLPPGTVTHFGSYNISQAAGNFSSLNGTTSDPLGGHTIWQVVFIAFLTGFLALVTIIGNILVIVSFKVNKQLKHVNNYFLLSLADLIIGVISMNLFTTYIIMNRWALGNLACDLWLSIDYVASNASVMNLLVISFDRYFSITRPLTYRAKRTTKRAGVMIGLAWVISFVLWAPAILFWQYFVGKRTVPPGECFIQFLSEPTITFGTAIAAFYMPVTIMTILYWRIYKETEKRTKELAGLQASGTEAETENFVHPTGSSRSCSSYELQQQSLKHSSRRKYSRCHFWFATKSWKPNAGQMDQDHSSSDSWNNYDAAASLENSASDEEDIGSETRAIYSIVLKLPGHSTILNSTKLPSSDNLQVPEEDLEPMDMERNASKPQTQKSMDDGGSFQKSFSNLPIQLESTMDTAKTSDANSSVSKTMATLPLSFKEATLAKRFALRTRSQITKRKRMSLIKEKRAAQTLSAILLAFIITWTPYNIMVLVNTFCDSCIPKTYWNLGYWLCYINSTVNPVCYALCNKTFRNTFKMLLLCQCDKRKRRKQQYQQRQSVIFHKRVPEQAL
Sequence of postsynaptic muscarinic cholinergic receptors on bladder detrusor muscle (Q8VH26 entry or part of it): as above

CCNCC#CCCC(=O)C(O)(c1ccccc1)C1CCCCC1 (centres unmarked) [Compound 10, 1-Cyclohexyl-1-hydroxy-phenyl-7-ethylamino-hept-5-yn-2-one hemifumarate, hydrate]
half-lives of PvesP depression relative to oxybutynin [1]: 1.78 times longer

CCN(CC)CC#CCCC1(C(O)(c2ccccc2)C2CCCCC2)SCCCS1 (centres unmarked) [Compound 2, 1-Cyclohexyl-1-phenyl-1-hydroxy-7-diethylaminohept-5-yn-2-one bis (1,3-propylene)dithioketal hemioxalate]
Bladder Kb [2]: enhance

CCN(CC)CC#CCCC(=O)C(C)(O)c1ccccc1.O=C(O)C(=O)O (centres unmarked) [Compound 7, 2-Hydroxy-2-phenyl-8-(N,N-diethylamino)oct-6-yn-3-one oxalate]
Ileum Kb [3]: NC 10µM

CCN(CC)CC#CCC(=O)CC1(O)CCc2ccccc21.CCN(CC)CC#CCC(=O)CC1(O)CCc2ccccc21.O.O=C(O)C(=O)O.O=C(O)C(=O)O (centres unmarked) [Compound 21, 1-(6-N,N-Diethylaminohex-4-yn-2-one)-1-hydroxyindan oxalate semihydrate]
Bladder Kb [2]: N.E. | Ileum Kb [3]: N.E.

CN(C)CC#CCCC(=O)C(O)(c1ccccc1)C1CCCCC1 (centres unmarked) [Compound 18, 1-Cyclohexyl-1-hydroxy-1-phenyl-7-dimethylaminohept-5-yn-2-one]
half-lives of PvesP depression relative to oxybutynin [1]: 2.65 times longer

1-(6-Diethylaminohex-4-yn-2-one)-1-hydroxy-1,2,3,4-tetrahydronaphthalene N-cyclohexylsulfamate hydrate [Compound 11]
Kb [2]: 0.512 µM | Kb [3]: > 1 µM
